Measurements taken from publication PMC9925730, “Controlled sequential in situ self-assembly and disassembly of a fluorogenic cisplatin prodrug for cancer theranostics” (Nature Communications, 2023).
Where “and” joins values, the source holds several entries; their conditions need not be identical. Equal entries are not always repeated.

What was measured:
HeLa MCTS = assay: MCTS imaging and cytotoxicity (penetration, PI staining); type: cell-based, human; settings: 10 μM 1 h, then 24 h
Method: Supplementary Figure 25. Flow cytometric analysis of HeLa cell death. (a) Gating strategy applied for flow cytometric analysis. (b) Representative flow cytometric analysis of HeLa cells by Annexin V-FITC/PI staining. HeLa cells were treated with PBS, CDDP, PtIVNPs or P-CyPt (20 μM) for 2 h, washed with cold PBS for three times, and then continued incubation in refresh blank DMEM medium for another 48 h. The cells were then stained with the Annexin V-FITC/PI kit, and analyzed by flow cytometry. One representative experiment out of two is shown.
Supplementary Figure 26. Evaluation of the penetration and cytotoxicity of PtIVNPs toward HeLa MCTS. MCTS were incubated with PtIVNPs (10 μM) for 1 h, then washed with PBS buffer for three times, followed by incubation for another 24 h.
The MCTs were then co-stained with PI. […]
μm. […] The fluorescence images of the MCTS were captured on a Leica TCS SP8 confocal laser scanning microscope, microscope (TCS SP8 STED 3X) with 10x/0.4 dry lens (Leica), and captured at RGB on a HyD detector (Leica Dmi8) under PI and Cy5.5 channels. […]
were sacrificed after 4 h. […] The fluorescence images of these organs and tumors were acquired with the IVIS Lumina XR III imaging system using a 660 nm excitation filter and a 750 ± 50 nm emission filter. […]

ALP [1] = assay: Dephosphorylated efficacy of P-CyPt towards varying concentrations of ALP (NIR fluorescence); type: biochemical; settings: for Normalized FL intensity: ALP 0 U/L; for normalized signal over time (section 'Supplementary Fig. 2c'), mean of 3: 250 μM
ALP [2] = assay: Specificity of P-CyPt towards ALP (Trypsin, MMP-2, GGT, CTB, Caspase-3, ALP, ALP + Na3VO4); type: biochemical; settings: for Normalized FL intensity at 710 nm, single replicate: individual replicates; for Normalized FL intensity at 710 nm, single replicate / Normalized FL intensity at 710 nm, mean: Supplementary Fig. 7b

CC1(C)C(/C=C/C2=C3Oc4cc(OP(=O)(O)O)c(Cl)cc4C=C3CCC2)=[N+](CCCNC(=O)[C@@H](Cc2ccccc2)NC(=O)[C@@H](Cc2ccccc2)NC(=O)CCC(=O)[O][Pt]([NH2])([NH2])([OH])([Cl])[Cl])c2ccccc21 [P-CyPt]
penetration / cell-kill depth in MCTS (HeLa MCTS): ~ 200 μm
Normalized FL intensity (ALP [1]; 0 min, mean of 3 samples): 1.022
Normalized FL intensity (ALP [1]; 0 min, single samples): 0.9783 and 1.039 and 1.048
Normalized FL intensity (ALP [1]; 2 min, mean of 3 samples): 1.026
Normalized FL intensity (ALP [1]; 2 min, single samples): 0.9783 and 1.057 and 1.043
Normalized FL intensity (ALP [1]; 4 min, mean of 3 samples): 1.02
Normalized FL intensity (ALP [1]; 4 min, single samples): 1.0087 and 1.035 and 1.017
Normalized FL intensity (ALP [1]; 6 min, mean of 3 samples): 1.039
Normalized FL intensity (ALP [1]; 6 min, single samples): 1.087 and 1.03 and 1
Normalized FL intensity (ALP [1]; 8 min, mean of 3 samples): 1.032
Normalized FL intensity (ALP [1]; 8 min, single samples): 1.087 and 1.013 and 0.9957
Normalized FL intensity (ALP [1]; 10 min, mean of 3 samples): 1.035
Normalized FL intensity (ALP [1]; 10 min, single samples): 1.083 and 1.017 and 1.004
Normalized FL intensity (ALP [1]; 12 min, mean of 3 samples): 1.029
Normalized FL intensity (ALP [1]; 12 min, single samples): 1.083 and 1.004 and 1
Normalized FL intensity (ALP [1]; 14 min, mean of 3 samples): 1.014
Normalized FL intensity (ALP [1]; 14 min, single samples): 1.065 and 0.9957 and 0.9826
Normalized FL intensity (ALP [1]; 16 min, mean of 3 samples): 1.013
Normalized FL intensity (ALP [1]; 16 min, single samples): 1.057 and 0.9957 and 0.987
Normalized FL intensity (ALP [1]; 18 min, mean of 3 samples): 1.0087
Normalized FL intensity (ALP [1]; 18 min, single samples): 1.048 and 1 and 0.9783
Normalized FL intensity (ALP [1]; 20 min, mean of 3 samples): 1.016
Normalized FL intensity (ALP [1]; 20 min, single samples): 1.039 and 0.9913 and 1.017
Normalized FL intensity (ALP [1]; 22 min, mean of 3 samples): 1.023
Normalized FL intensity (ALP [1]; 22 min, single samples): 1.104 and 0.9913 and 0.9739
Normalized FL intensity (ALP [1]; 24 min, mean of 3 samples): 1
Normalized FL intensity (ALP [1]; 24 min, single samples): 1.039 and 0.9957 and 0.9652
Normalized FL intensity (ALP [1]; 26 min, mean of 3 samples): 1.0029
Normalized FL intensity (ALP [1]; 26 min, single samples): 1.035 and 1.004 and 0.9696
Normalized FL intensity (ALP [1]; 28 min, mean of 3 samples): 1.014
Normalized FL intensity (ALP [1]; 28 min, single samples): 1.026 and 0.9913
Normalized FL intensity (ALP [1]; 30 min, mean of 3 samples): 1.00E+00
Normalized FL intensity (ALP [1]; 30 min, single samples): 1.04E+00 and 9.91E-01 and 0.9783
normalized signal over time (section 'Supplementary Fig. 2c'), mean of 3 (ALP [1]; time 200 min): 0.9941
normalized signal over time (section 'Supplementary Fig. 2c'), mean of 3 (ALP [1]; time 220 min): 0.9946
normalized signal over time (section 'Supplementary Fig. 2c'), mean of 3 (ALP [1]; time 240 min): 0.9956
normalized signal over time (section 'Supplementary Fig. 2c'), mean of 3 (ALP [1]; time 300 min): 0.9969
normalized signal over time (section 'Supplementary Fig. 2c'), mean of 3 (ALP [1]; time 340 min): 0.9978
normalized signal over time (section 'Supplementary Fig. 2c'), mean of 3 (ALP [1]; time 360 min): 0.9982
normalized signal over time (section 'Supplementary Fig. 2c'), mean of 3 (ALP [1]; time 380 min): 0.998
normalized signal over time (section 'Supplementary Fig. 2c'), mean of 3 (ALP [1]; time 400 min): 0.9983
normalized signal over time (section 'Supplementary Fig. 2c'), mean of 3 (ALP [1]; time 420 min): 0.9984
normalized signal over time (section 'Supplementary Fig. 2c'), mean of 3 (ALP [1]; time 460 min): 0.9985
normalized signal over time (section 'Supplementary Fig. 2c'), mean of 3 (ALP [1]; time 480 min): 0.9989
normalized signal over time (section 'Supplementary Fig. 2c'), mean of 3 (ALP [1]; time 500 min): 0.9986
normalized signal over time (section 'Supplementary Fig. 2c'), mean of 3 (ALP [1]; time 520 min): 0.9984
normalized signal over time (section 'Supplementary Fig. 2c'), mean of 3 (ALP [1]; time 540 min): 0.9984
normalized signal over time (section 'Supplementary Fig. 2c'), mean of 3 (ALP [1]; time 560 min): 0.9984
normalized signal over time (section 'Supplementary Fig. 2c'), mean of 3 (ALP [1]; time 580 min): 0.9984
normalized signal over time (section 'Supplementary Fig. 2c'), mean of 3 (ALP [1]; time 600 min): 0.9984
Normalized FL intensity at 710 nm, single replicate (ALP [2]; Enzyme type: ALP+Na3VO4): 1.0416 and 1.0656 and 1.1392
Normalized FL intensity at 710 nm, mean (ALP [2]; Enzyme type: ALP+Na3VO4, mean of 3 replicates): 1.082
Normalized FL intensity at 710 nm, single replicate (ALP [2]; Enzyme type: ALP+PBS): 1.0305 and 1.3734 and 1.3861
Normalized FL intensity at 710 nm, mean (ALP [2]; Enzyme type: ALP+PBS, mean of 3 replicates): 1.263
Normalized FL intensity at 710 nm, single replicate (ALP [2]; Enzyme type: ALP): 7.7619 and 9.0065 and 9.1858
Normalized FL intensity at 710 nm, mean (ALP [2]; Enzyme type: ALP, mean of 3 replicates): 8.651
Normalized FL intensity at 710 nm, single replicate (ALP [2]; Enzyme type: CTB): 0.9991 and 1.017 and 1.1059
Normalized FL intensity at 710 nm, mean (ALP [2]; Enzyme type: CTB, mean of 3 replicates): 1.041
Normalized FL intensity at 710 nm, single replicate (ALP [2]; Enzyme type: GGT): 0.8869 and 1.0719 and 1.0726
Normalized FL intensity at 710 nm, mean (ALP [2]; Enzyme type: GGT, mean of 3 replicates): 1.010
Normalized FL intensity at 710 nm, single replicate (ALP [2]; Enzyme type: MMP-2): 0.9603 and 0.9824 and 1.1444
Normalized FL intensity at 710 nm, mean (ALP [2]; Enzyme type: MMP-2, mean of 3 replicates): 1.029
Normalized FL intensity at 710 nm, single replicate (ALP [2]; Enzyme type: Tris (buffer only)): 0.9358 and 0.9007 and 1.1635
Normalized FL intensity at 710 nm, mean (ALP [2]; Enzyme type: Tris (buffer only), mean of 3 replicates): 1.000
Normalized FL intensity at 710 nm, single replicate (ALP [2]; Enzyme type: Trypsin): 0.935 and 0.9815 and 1.0282
Normalized FL intensity at 710 nm, mean (ALP [2]; Enzyme type: Trypsin, mean of 3 replicates): 0.982
NIR fluorescence signal of P-CyPt after incubation with enzyme (Supplementary Fig. 7, enzyme types), individual replicates (ALP [2]; enzyme: Casepase-3, individual replicate values (n=3)): 1.0789 and 1.0855 and 1.1465
NIR fluorescence signal of P-CyPt after incubation with enzyme (Supplementary Fig. 7, enzyme types), mean (ALP [2]; enzyme: Casepase-3, mean of 3 replicates): 1.104
